# Tests used:
# [1] = system: CT26 colon carcinoma cells; experiment: CT26 tumor model, BNT411 alone and with oxaliplatin (Example 4); format: in vivo, mouse
# Procedure: FIG. 5. Anti-tumoral efficacy of BNT411 alone and in combination with oxaliplatin in a tumor mouse model. Mice (n=12 or 13 per group) subcutaneously inoculated with 2.5×10^5 CT26 colon carcinoma cells were used as tumor mouse model. Oxaliplatin was administered intraperitoneally (i.p.) (5 mg/kg, four times with 4 to 5 days between injections). BNT411 was administered i.v. at a dose level of 3 mg/kg eight times with 2 to 5 days interval between injections and at least 2 days after oxaliplatin therapy. Anti-tumor efficacy was evaluated by group mean tumor volumes in test versus control groups (vehicle only) on days 33 and 42 (at least 50% of test and control animals alive). IFNα levels in plasma were analyzed 1 h after first BNT411 administration and gp70+ T-cell populations in blood were analyzed on days 34 and 41. (A) Dosing schedule. (B) Graph showing the tumor volumes vs. days after inoculation. Group mean tumor volumes (±SEM (standard error of the mean)) for all live animals are shown. Treatment groups included nine to ten mice. Additionally, tumor volumes of animals that were euthanized due to tumor load were carried forward for as long as they were larger than the group median tumor volume (last observation carried forward (LOCF) values). Curves were discontinued for groups with less than 50% animals alive. (C) Graph showing IFNα serum level 60 min after first injection for the 4 groups (control (vehicle); BNT411 alone; oxaliplatin alone; BNT411 and oxaliplatin). IFNα levels in control and test groups are shown by vertical bars (±SEM), Statistical significance between groups is indicated by horizontal lines. P-value summary: ****=p≤0.0001; ***=p≤0.001; **=p≤0.01, […].
# (§1) Serum levels of IFNα were measured by sandwich ELISA (Pbl Assay Systems) according to manufacturer's instructions.
# BALB/c mice were inoculated s.c. with 2.5×10^5−5×10^5 CT26-WT into the flank, respectively. Once tumors reached palpable sizes, mice were randomly divided into treatment and control groups. Tumor volume was measured unblinded with a caliper and calculated using the formula (a×b^2)/2 (a being the largest and b being the smallest diameter of the tumor). Tumor growth was documented as mean tumor size with standard error disregarding single distant outliers. Treatment was initiated after 7-10 d with tumors having reached an average volume of about 10 mm^3. […]
# Oxaliplatin was administered intraperitoneally (i.p.) (5 mg/kg, four times with 4 to 5 days between injections). […] Anti-tumor efficacy was evaluated by group mean tumor volumes in test versus control groups (vehicle only) on study days 33 and 42, (at least 50% of test and control animals alive). IFNα levels in plasma were analyzed 1 h after first BNT411 administration and gp70+ T-cell populations in blood on study days 34 and 41.
# [2] = system: BALB/c mice; experiment: In vivo cytokine release in BALB/c mice (IFNa ELISA); parameters: species or system mouse; settings: 3 mg/kg retro-orbital vs 5, 10, 15 mg/kg; blood 1 h after application
# Procedure: FIG. 2. In vivo cytokine release in BALB/c mice upon administration of BNT411. Female BALB/c mice were retro-orbitally administered with doses of 3, 5, 10, and 15 mg/kg BNT411. Blood samples were drawn 1 h after compound application and analyzed with mouse IFNa ELISA.
# as §1
# Female BALB/c mice were retro-orbitally administered with doses of 3, 5, 10, and 15 mg/kg BNT411. Blood samples were drawn 1 h after compound application and analyzed with mouse IFNa ELISA.
# [3] = system: Human whole blood; experiment: Cytokine release in human whole blood treated in vitro (CBA); format: cell-based
# Procedure: FIG. 7. Release of certain cytokines upon treatment of whole blood from human donors with BNT411 at various concentrations. Whole blood drawn from healthy human volunteers was treated in vitro with BNT411 to investigate the induction of the following cytokines/chemokines: IFNα, IP-10, IL-6, and TNFα. BNT411 concentrations ranging from 0.1 nM (1×) to 7.5 μM (75000×). The fold increase to baseline is shown for each cytokine and BNT411 concentration tested.
# After performing a serial dilution of the test compounds (such as BNT411), 5 μL of each sample is transferred/pipetted to single wells of a 96-well-plate. As negative control, plasma which has been prepared from whole blood of each donor is used. Subsequently, 245 μL of RPMI-medium is added to each well, leading to a 1:50 dilution of each sample, named spiking solutions. The heparinized whole blood is pipetted to separate 96-well-plate. After seeding whole blood, the prepared spiking solutions are added: 190 μL of whole blood is seeded in each well and 10 μL of spiking solutions is added to get a final volume of 200 μL per well and additional 1:20 dilution of all samples. Finally, the plates are incubated at 37° C. and 5% CO2. After 24 h incubation the plates are centrifuged at 500×g for 5 min. The plasma of all samples is harvested, transferred to a new 96-well-plate and frozen at −15° C. to −25° C. until performing the CBA, but at least 3 h.
# The CBA is performed with the frozen/thawed plasma samples according to the manufacturer's instructions for ProCarta multiplex kits. For evaluation of cytokine concentrations, assay duplicates of all samples are measured by using the luminex system. After checking standard curves with the instrument control system (Bio-Plex Manager 4.1.1) the raw data are transferred to excel. Graphical analysis is performed with GraphPad Prism 6.
# Human whole blood was obtained from healthy donors and treated in vitro with BNT411 (concentration range: 0.1 nM to […]). 24 h after stimulation secretion of several cytokines, including IFNα, IP-10, IL-6, and TNFα, was analyzed by a multiplexed CBA.
smiles,measurement,setting,value
COCCc1nc2c(N)nc3ccccc3c2n1CCCCN(C(C)=O)C1CCOCC1 [BNT411],"anti-tumor efficacy, T/C value","[1]; BNT411 3 mg/kg i.v. eight times, oxaliplatin 5 mg/kg i.p. four times, group mean tumor volumes test vs control",65.8%
same,effect on tumor growth (conclusion),"[1]; mouse, in vivo",anti-tumor activity
same,"IFNα levels, BNT411 monotherapy group vs combination of BNT411 and oxaliplatin",[1]; two-way ANOVA,statistically significantly higher
same,IFNa secretion,[2],stronger IFNa secretion as compared to higher BNT411 doses
same,"concentrations required for inducing secretion of pyrogenic proinflammatory cytokines (e.g., TNFα) relative to IFNα",[3]; FIG. 7,up to two orders of magnitude higher
same,"IFNα secretion induced at fold lower concentrations than needed for induction of IL-6, TNFα, and IL-10","[3]; human whole blood, 24 h",5- to 25 fold
same,"concentration at which IL-6, TNFa and IL-10 start to be induced","[3]; human whole blood, 24 h",about 0.06 μM
same,concentration at which significant IFNα release was induced,"[3]; human whole blood, 24 h",0.012 µM
same,"concentration for maximal induction of IFNα, fold lower than for maximal induction of IL-6, TNFα, and IL-10","[3]; human whole blood, 24 h",25- to 100 fold
